For 58 molecules, ΔTm and IC50 results are on record in US10526291B2, “Potent dual BRD4-kinase inhibitors as cancer therapeutics” (H. Lee Moffitt Cancer Center and Research Institute, Inc., priority 2014, dated 2020).

Broadly, the ΔTm is the change in melting temperature against a reference sample. The term IC50 denotes the concentration that inhibits the measured activity by half.

Molecules are shown by their SMILES.

For this assay, the target named is BRD4 (Homo sapiens, UniProt O60885). Briefly: Differential Scanning Fluorimetry (DSF), stability of BRD4 upon ligand binding. The following applies: for ΔTm at 4 µM: 100 μM protein, 4 μM compound and 2% DMSO; for IC50: estimated. The method, then:
DSF=Differential Scanning Fluorimetry; provides a measure of the increased stability of BRD4 upon ligand binding The DSF experiment was run at 100 μM protein, 4 μM compound and 2% DMSO.

As for `CCc1cnc(Nc2ccc(N3CCN(C)CC3)cc2)nc1Nc1cccc(S(=O)(=O)NC(C)C)c1`, the shift in melting temperature (ΔTm) at 4 µM worked out at 2.2 °C and the IC50 was 3990 nM.
Consider `CC(C)NS(=O)(=O)c1cccc(Nc2nc(Nc3ccc(N4CCOCC4)cc3)ncc2Br)c1`, for which the ΔTm at 4 µM is -0.79 °C and the IC50 was 39800 nM.
In the case of `CCc1cnc(Nc2ccc(N3CCOCC3)cc2)nc1Nc1cccc(S(=O)(=O)NC(C)C)c1`, the ΔTm at 4 µM was -0.29 °C and the IC50 is 27100 nM.
For `CC(C)(C)c1cccc(Nc2nc(Nc3ccc(N4CCOCC4)cc3)ncc2Cl)c1`, the ΔTm at 4 µM is -0.34 °C and the IC50 is 28200 nM.
For `CC(C)NS(=O)(=O)c1cccc(Nc2nc(Nc3ccc(N4CCNCC4)cc3)ncc2Br)c1`, the ΔTm at 4 µM is 5 °C and the IC50 is 460 nM.
For `CCc1cnc(Nc2ccc(N3CCOCC3)cc2)nc1Nc1cccc(S(=O)(=O)NC(C)(C)C)c1`, the ΔTm at 4 µM is -0.0084 °C and the IC50 was 21800 nM.
Regarding `CCc1cnc(Nc2ccc(N3CCN(C)CC3)cc2)nc1Nc1cccc(S(=O)(=O)NC(C)(C)C)c1`, the ΔTm at 4 µM turned out to be 3.2 °C and the IC50 is 1850 nM.
Taken in the same sequence, the figures for `Cc1nc(Nc2ccc(N3CCOCC3)cc2)nc(Nc2cccc(S(=O)(=O)NC(C)(C)C)c2)c1C` were 1.9 ± 0.17 °C and 5030 nM.
Take `COc1ccc(Nc2nc(C)c(C)c(Nc3cccc(S(=O)(=O)NC(C)(C)C)c3)n2)cc1`: the thermal shift (ΔTm) at 4 µM was determined as 0.22 ± 0.2 °C and the IC50 is 18300 nM.
For the molecule `COc1ccc(Nc2nc(C)c(C)c(Nc3cccc(S(N)(=O)=O)c3)n2)cc1`, the ΔTm at 4 µM was 0.12 ± 0.13 °C and the IC50 is 19800 nM.
In the case of `Cc1cnc(Nc2ccc(N3CCN(C)CC3)cc2)nc1Nc1cccc(S(=O)(=O)NC(C)C)c1`, the ΔTm at 4 µM was 6 ± 0.1 °C and the IC50 was 210 nM.
With `CN1CCN(c2ccc(Nc3ncc(C(F)(F)F)c(Nc4cccc(S(=O)(=O)NC(C)(C)C)c4)n3)cc2)CC1`, the ΔTm at 4 µM was 0.2 ± 0.082 °C and the IC50 was 18600 nM.
Regarding `CC(C)(C)NS(=O)(=O)c1cccc(Nc2nc(Nc3ccc(N4CCNCC4)cc3)ncc2C(F)(F)F)c1`, the ΔTm at 4 µM turned out to be 2.9 ± 0.031 °C and the IC50 is 2330 nM.
Taken in the same sequence, the figures for `CN1CCN(c2ccc(Nc3ncc(F)c(Nc4ccc(C(=O)Nc5ccccc5)cc4)n3)cc2)CC1` were 0.35 ± 0.068 °C and 17000 nM.
As for `CN1CCN(c2ccc(Nc3ncc(F)c(Nc4ccc(C(=O)NC5CC5)cc4)n3)cc2)CC1`, the shift in melting temperature (ΔTm) at 4 µM amounted to 3.4 ± 0.27 °C and the IC50 was 1600 nM.
As to `Cc1cnc(Nc2ccc(C3CCN(C)CC3)cc2)nc1Nc1cccc(NS(=O)(=O)C(C)(C)C)c1`, the ΔTm at 4 µM came to 7.6 ± 0.28 °C and the IC50 is 61 nM.
For `Cc1cnc(Nc2ccc(N3CCN(C)CC3)cc2)nc1Nc1ccc(C(=O)NC2CC2)cc1`, the ΔTm at 4 µM stood at 6.5 ± 0.11 °C and the IC50 was 150 nM.
On the same counts, the results for `Cc1cnc(Nc2ccc(CC(=O)N3CCN(C)CC3)cc2)nc1Nc1ccc(C(=O)NC2CC2)cc1` are 6.8 ± 0.15 °C and 110 nM.
`CN1CCN(C(=O)Cc2ccc(Nc3ncc(F)c(Nc4ccc(C(=O)NC5CC5)cc4)n3)cc2)CC1`: the shift in melting temperature (ΔTm) at 4 µM came out at 4.2 ± 0.2 °C and the IC50 was 850 nM.
`Cc1ccc(Nc2nc(Nc3ccc(N4CCN(C)CC4)cc3)ncc2C)cc1NS(=O)(=O)C(C)(C)C`: the ΔTm at 4 µM was 9.2 ± 0.12 °C and the IC50 is 18 nM.
Taken in the same sequence, the figures for `Cc1cnc(Nc2ccc(N3CCN(C)CC3)cc2)nc1Nc1cccc(NS(=O)(=O)c2ccccc2)c1` were 4.1 ± 0.07 °C and 900 nM.
As to `Cc1cnc(Nc2ccc(N3CCN(C)CC3)cc2)nc1Nc1ccc(Cl)c(NS(=O)(=O)c2ccccc2)c1`, the ΔTm at 4 µM was found to be 4.1 ± 0.1 °C and the 50% inhibitory concentration (IC50) is 960 nM.
In the case of `Cc1cnc(Nc2ccc(N3CCN(C)CC3)cc2)nc1Nc1cccc(NS(=O)(=O)C(C)C)c1`, the ΔTm at 4 µM was found to be 7.5 ± 0.14 °C and the IC50 is 66 nM.
Taken in the same sequence, the figures for `Cc1cnc(Nc2ccc(N3CCN(C)CC3)cc2)nc1Nc1ccc(F)c(NS(=O)(=O)C(C)(C)C)c1` were 9.5 ± 0.07 °C and 14 nM.
In the case of `Cc1cnc(Nc2ccc(N3CCN(C)CC3)cc2)nc1Nc1cc(NS(=O)(=O)C2CC2)cc(NS(=O)(=O)C2CC2)c1`, the ΔTm at 4 µM is 5.3 ± 0.041 °C and the IC50 was 370 nM.
For `Cc1cnc(Nc2ccc(N3CCN(C)CC3)cc2)nc1Nc1ccc(Cl)c([N+](=O)[O-])c1`, the ΔTm at 4 µM stood at 2 ± 0.05 °C and the IC50 was 4700 nM.
For the molecule `Cc1cnc(Nc2ccc(N3CCN(C)CC3)cc2)nc1Nc1ccc(Cl)c(S(=O)(=O)NC(C)(C)C)c1`, the ΔTm at 4 µM is 8.4 ± 0.13 °C and the IC50 was 34 nM.
On the same counts, the results for `Cc1cnc(Nc2ccc(CC(=O)N3CCN(C)CC3)cc2)nc1Nc1ccc(Cl)cc1` are 4.1 ± 0.21 °C and 930 nM.
On the same counts, the results for `Cc1cnc(Nc2ccc(CC(=O)N3CCN(C)CC3)cc2)nc1Nc1ccc(Cl)c(Cl)c1` are 4.7 ± 0.14 °C and 580 nM.
On the same counts, the results for `CCCS(=O)(=O)Nc1cc(Nc2nc(Nc3ccc(N4CCN(C)CC4)cc3)ncc2C)ccc1Cl` are 6.7 ± 0.15 °C and 130 nM.
Regarding `Cc1cnc(Nc2ccc(CC(=O)N3CCN(C)CC3)cc2)nc1Nc1ccc(Cl)c(NS(=O)(=O)C(C)(C)C)c1`, the ΔTm at 4 µM stood at 9.8 ± 0.03 °C and the IC50 was 12 nM.
On the same counts, the results for `CCOC(=O)c1cnc(Nc2ccc(N3CCN(C)CC3)cc2)nc1Nc1cccc(NS(=O)(=O)C(C)(C)C)c1` are 3.4 ± 0.12 °C and 1600 nM.
Regarding `Cc1ccc(Nc2nc(Nc3ccc(N4CCN(C)CC4)cc3)ncc2C)cc1S(=O)(=O)NC1CCC1`, the ΔTm at 4 µM is 6.7 ± 0.13 °C and the IC50 was 130 nM.
Regarding `Cc1ccc(Nc2nc(Nc3ccc(C(=O)NC4CCN(C)CC4)c(F)c3)ncc2C)cc1S(=O)(=O)NC1CCC1`, the ΔTm at 4 µM came out at 7.8 ± 0.15 °C and the IC50 was 54 nM.
As to `Cc1ccc(Nc2nc(Nc3ccc(N4CCN(C)CC4)c(F)c3)ncc2C)cc1S(=O)(=O)NC1CCC1`, the shift in melting temperature (ΔTm) at 4 µM came out at 6.8 ± 0.01 °C and the 50% inhibitory concentration (IC50) is 120 nM.
For `CN1CCN(c2ccc(Nc3ncc(CO)c(Nc4cccc(NS(=O)(=O)C(C)(C)C)c4)n3)cc2)CC1`, the ΔTm at 4 µM stood at 3.1 ± 0.08 °C and the 50% inhibitory concentration (IC50) is 2000 nM.
As to `Cc1ccc(Nc2nc(Nc3ccc(C4CCN(C)CC4)cc3)ncc2C)cc1S(=O)(=O)NC1CCC1`, the shift in melting temperature (ΔTm) at 4 µM was found to be 7.7 ± 0.17 °C and the IC50 was 58 nM.
In the case of `Cc1cnc(Nc2ccc(N3CCN(C)CC3)cc2)nc1Nc1cccc(NS(=O)(=O)C2(C)CC2)c1`, the ΔTm at 4 µM worked out at 7.5 ± 0.23 °C and the IC50 is 68 nM.
`Cc1cnc(Nc2ccc(N3CCN(C)CC3)c(F)c2)nc1Nc1cccc(NS(=O)(=O)C2(C)CC2)c1`: the ΔTm at 4 µM is 9.1 ± 0.05 °C and the IC50 was 20 nM.
Consider `CCCS(=O)(=O)Nc1cccc(Nc2nc(Nc3ccc(N4CCN(C)CC4)cc3)ncc2C)c1`, for which the ΔTm at 4 µM amounted to 6.7 ± 0.157 °C and the concentration for half-maximal inhibition (IC50) was 321 nM.
As for `Cc1cnc(Nc2ccc(N3CCN(C)CC3)cc2)nc1Nc1cccc(NS(=O)(=O)CC(C)C)c1`, the ΔTm at 4 µM came to 6.58 ± 0.103 °C and the 50% inhibitory concentration (IC50) is 347 nM.
With `CCS(=O)(=O)Nc1cc(Nc2nc(Nc3ccc(N4CCN(C)CC4)cc3)ncc2C)ccc1Cl`, the ΔTm at 4 µM amounted to 7.93 ± 0.183 °C and the IC50 was 145 nM.
As to `Cc1cnc(Nc2ccc(N3CCN(C)CC3)cc2)nc1Nc1ccc(Cl)c(NS(=O)(=O)CC(C)C)c1`, the shift in melting temperature (ΔTm) at 4 µM worked out at 7.28 ± 0.091 °C and the IC50 is 221 nM.
In the case of `Cc1cnc(Nc2ccc(N3CCN(C)CC3)c(F)c2)nc1Nc1ccc(Cl)c(NS(=O)(=O)CC(C)C)c1`, the ΔTm at 4 µM came out at 8.89 ± 0.044 °C and the IC50 was 74.8 nM.
As for `Cc1cnc(Nc2ccc(N3CCN(C)CC3)cc2)nc1Nc1ccc2c(c1)N(S(=O)(=O)C(C)(C)C)CC2`, the ΔTm at 4 µM was 9.97 ± 0.08 °C and the IC50 was 39 nM.
In the case of `Cc1cnc(Nc2ccc(N3CCN(C)CC3)c(F)c2)nc1Nc1ccc2c(c1)N(S(=O)(=O)C(C)(C)C)CC2`, the ΔTm at 4 µM is 12.1 ± 0.105 °C and the IC50 is 9.8 nM.
As to `Cc1cnc(Nc2ccc(C(=O)NC3CCN(C)CC3)c(F)c2)nc1Nc1ccc2c(c1)N(S(=O)(=O)C(C)(C)C)CC2`, the shift in melting temperature (ΔTm) at 4 µM was 12.3 ± 0.116 °C and the IC50 is 8.6 nM.
`Cc1cnc(Nc2ccc(N3CCN(C)CC3)cc2)nc1Nc1ccc2c(c1)N(S(=O)(=O)C(C)(C)C)CCC2`: the ΔTm at 4 µM came out at 8.72 ± 0.141 °C and the IC50 was 87.3 nM.
On to `Cc1cnc(Nc2ccc(N3CCN(C)CC3)c(F)c2)nc1Nc1ccc2c(c1)N(S(=O)(=O)C(C)(C)C)CCC2`, for which the ΔTm at 4 µM amounted to 10.5 ± 0.15 °C and the IC50 is 27.7 nM.
On the same counts, the results for `Cc1cnc(Nc2ccc(C(=O)NC3CCN(C)CC3)c(F)c2)nc1Nc1ccc2c(c1)N(S(=O)(=O)C(C)(C)C)CCC2` are 11.4 ± 0.103 °C and 15.5 nM.
For `Cc1cnc(Nc2ccc(N3CCN(C)CC3)c(Cl)c2)nc1Nc1ccc(Cl)c(NS(=O)(=O)C(C)(C)C)c1`, the shift in melting temperature (ΔTm) at 4 µM was 9.54 ± 0.163 °C and the IC50 was 51.4 nM.
`Cc1cc(Nc2ncc(C)c(Nc3ccc(Cl)c(NS(=O)(=O)C(C)(C)C)c3)n2)ccc1N1CCN(C)CC1`: the ΔTm at 4 µM turned out to be 10.4 ± 0.151 °C and the IC50 is 29.5 nM.
`Cc1cnc(Nc2cc(F)c(N3CCN(C)CC3)c(F)c2)nc1Nc1cccc(NS(=O)(=O)C(C)(C)C)c1`: the ΔTm at 4 µM was determined as 12.8 ± 0.058 °C and the IC50 was 6.28 nM.
For the molecule `Cc1cnc(Nc2ccc(N3CCN(C)CC3)c(C(F)(F)F)c2)nc1Nc1cccc(NS(=O)(=O)C(C)(C)C)c1`, the ΔTm at 4 µM turned out to be 8.12 ± 0.044 °C and the IC50 was 129 nM.
Consider `Cc1cnc(Nc2cc(F)c(N3CCN(C)CC3)c(F)c2)nc1Nc1ccc(Cl)c(NS(=O)(=O)C(C)(C)C)c1`, for which the ΔTm at 4 µM is 13.8 ± 0.191 °C and the IC50 was 3.29 nM.
As for `Cc1cnc(Nc2cc(F)c(N3CCN(C)CC3)c(F)c2)nc1Nc1ccc(Cl)c(NS(=O)(=O)C2(C)CC2)c1`, the ΔTm at 4 µM amounted to 12.3 ± 0.167 °C and the IC50 was 8.6 nM.
`Cc1cnc(Nc2ccc(C(=O)NC3CCN(C)CC3)c(F)c2)nc1Nc1ccc(Cl)c(NS(=O)(=O)C2(C)CC2)c1`: the ΔTm at 4 µM turned out to be 10.9 ± 0.22 °C and the half-inhibitory concentration (IC50) was 21 nM.
Taken in the same sequence, the figures for `Cc1cnc(Nc2ccc(N3CCN(C)CC3)cc2)nc1Nc1cccc([N+](=O)[O-])c1` were 3.17 ± 0.142 °C and 3130 nM.
